From US5002942A, “1,5-benzothiazepine derivatives, their preparation and their use in the treatment of cardiovascular disorders” (Sankyo Company, Limited, priority 1988, dated 1991)

What was measured:
[1] = molecular target: T1, calcium channel (Cavia porcellus, UniProt O35505); experiment: Calcium channel blocking action (calcium-induced contraction of excised taenia coli); settings: 0.5 h, test compound 10^-8 g/ml, 30 minutes incubation, guinea pig taenia coli, hydrochlorides (Example 34: fumarate)
T1 construct: The taenia coli excised from a male guinea pig; from tissue; host or cells: guinea pig taenia coli (excised smooth muscle strip)
T1 sequence (O35505 whole entry): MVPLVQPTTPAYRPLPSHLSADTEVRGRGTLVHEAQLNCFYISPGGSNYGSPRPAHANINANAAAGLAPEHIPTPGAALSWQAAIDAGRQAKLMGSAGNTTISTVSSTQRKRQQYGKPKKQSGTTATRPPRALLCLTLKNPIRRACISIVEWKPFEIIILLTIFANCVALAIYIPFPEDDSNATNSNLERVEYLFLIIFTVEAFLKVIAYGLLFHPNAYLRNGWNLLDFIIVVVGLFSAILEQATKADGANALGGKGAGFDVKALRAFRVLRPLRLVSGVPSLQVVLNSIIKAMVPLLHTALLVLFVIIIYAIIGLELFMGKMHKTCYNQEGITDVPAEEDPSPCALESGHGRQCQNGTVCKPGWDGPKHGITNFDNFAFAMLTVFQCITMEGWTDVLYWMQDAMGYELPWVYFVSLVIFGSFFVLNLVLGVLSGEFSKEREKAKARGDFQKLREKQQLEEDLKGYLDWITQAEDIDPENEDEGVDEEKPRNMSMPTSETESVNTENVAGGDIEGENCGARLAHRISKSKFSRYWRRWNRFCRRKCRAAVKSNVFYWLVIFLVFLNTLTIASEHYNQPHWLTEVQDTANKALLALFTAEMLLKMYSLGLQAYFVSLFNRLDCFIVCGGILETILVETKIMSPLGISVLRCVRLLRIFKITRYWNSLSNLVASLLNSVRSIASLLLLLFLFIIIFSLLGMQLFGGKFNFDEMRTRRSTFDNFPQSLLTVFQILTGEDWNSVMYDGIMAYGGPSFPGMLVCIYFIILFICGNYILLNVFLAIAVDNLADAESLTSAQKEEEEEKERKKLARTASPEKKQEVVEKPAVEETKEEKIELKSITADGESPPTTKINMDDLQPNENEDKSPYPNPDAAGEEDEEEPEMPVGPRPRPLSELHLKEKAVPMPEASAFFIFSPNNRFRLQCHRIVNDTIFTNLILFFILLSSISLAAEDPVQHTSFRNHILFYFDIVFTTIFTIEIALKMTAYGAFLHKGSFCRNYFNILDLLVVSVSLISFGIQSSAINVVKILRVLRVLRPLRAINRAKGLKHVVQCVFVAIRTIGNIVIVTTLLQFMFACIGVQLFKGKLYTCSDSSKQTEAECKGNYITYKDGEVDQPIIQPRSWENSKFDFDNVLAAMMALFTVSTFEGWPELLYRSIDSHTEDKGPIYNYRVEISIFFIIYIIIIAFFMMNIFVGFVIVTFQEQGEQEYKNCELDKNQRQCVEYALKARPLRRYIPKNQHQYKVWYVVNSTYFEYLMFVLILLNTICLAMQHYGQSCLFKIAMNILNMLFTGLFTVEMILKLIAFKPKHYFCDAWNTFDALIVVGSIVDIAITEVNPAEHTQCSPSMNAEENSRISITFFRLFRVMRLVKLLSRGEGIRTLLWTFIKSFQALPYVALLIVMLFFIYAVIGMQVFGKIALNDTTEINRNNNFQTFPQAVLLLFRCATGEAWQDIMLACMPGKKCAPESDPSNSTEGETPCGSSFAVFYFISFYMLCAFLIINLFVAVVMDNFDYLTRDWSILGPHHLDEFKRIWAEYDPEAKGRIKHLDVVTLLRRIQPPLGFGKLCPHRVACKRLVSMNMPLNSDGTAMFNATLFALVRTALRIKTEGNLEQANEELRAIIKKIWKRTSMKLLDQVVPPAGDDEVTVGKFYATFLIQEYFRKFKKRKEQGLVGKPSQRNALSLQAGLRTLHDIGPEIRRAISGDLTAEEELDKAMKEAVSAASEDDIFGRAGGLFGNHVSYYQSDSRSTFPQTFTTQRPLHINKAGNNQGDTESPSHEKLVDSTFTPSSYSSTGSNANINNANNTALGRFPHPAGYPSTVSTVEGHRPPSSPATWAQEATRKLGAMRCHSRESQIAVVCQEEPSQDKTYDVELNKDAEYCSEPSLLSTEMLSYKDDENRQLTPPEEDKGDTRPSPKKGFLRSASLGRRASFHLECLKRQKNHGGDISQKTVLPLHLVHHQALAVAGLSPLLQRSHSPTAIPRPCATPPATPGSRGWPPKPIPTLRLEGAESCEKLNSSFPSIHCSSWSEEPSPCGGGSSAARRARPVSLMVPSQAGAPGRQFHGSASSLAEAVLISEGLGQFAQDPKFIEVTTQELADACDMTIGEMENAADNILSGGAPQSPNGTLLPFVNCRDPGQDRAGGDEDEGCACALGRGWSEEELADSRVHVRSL
Method: The taenia coli excised from a male guinea pig weighing from 250 to 300 g was cut into a length of 6 to 7 mm and suspended in an organ bath filled with Tylord's solution (sodium chloride 97 mM, potassium chloride 40 mM, sodium hydrogen carbonate 11.9 mM, disodium hydrogen phosphate 0.4 mM, glucose 5.5 mM; pH 7.1). The bath solution contained no calcium ions and was aerated with a mixture of 95% oxygen and 5% carbon dioxide by volume. To this solution were added 10 and 30 mM solutions of calcium chloride at 30 minute intervals to obtain a final concentration of 0.4 mM. The tension which developed 1n the taenia coli was measured by an isometric transducer. The organ bath was then washed twice or more with Tylord's solution containing no calcium ions after which it was allowed to equilibrate for 30 minutes. After the muscle had stabilised, test compound dissolved in physiological saline was added to the bath to a final concentration of 10^-8 g/ml, and the bath was incubated for 30 minutes. 30 and 100 mM solutions of calcium chloride were again added to the bath, and the developed tension was measured. From the magnitude of the calcium-induced contraction before and after the test drug had been added the inhibitory rate was calculated using the following formula: [formula] where: Co=contraction induced by calcium ion before a test drug was added: and
Ct=contraction induced by calcium ion after the test drug had been added.
In addition to the compounds of the invention, we also carried out the same test with the following compounds of the prior art: (±)-diltiazem, […], (±)-8-chlorodiltiazem (8-Cl-diltiazem). (±)-8-methoxydiltiazem (8-MeO-diltiazem) and (±)-8-benzyloxydiltiazem (8-BzO-diltiazem).
In the Table, the compounds of the invention are identified by the number of the one of the foregoing Examples in which the compound was prepared. The prior art compounds are identified by the abbreviated generic names shown above in parentheses.
All of the compounds except for that of Example 34 were employed as the hydrochlorides; that of Example 34 was employed as the fumarate.

[2] = tested on: SHR (spontaneously hypertensive rats); experiment: Antihypertensive action in SHR; type: in vivo; settings: conscious male SHR, hydrochlorides, 24 hours
Method: Male SHR (spontaneously hypertensive rats), 23 to 30 weeks old, were anesthesized with sodium pentobarbital 50 mg/kg intraperitoneal administration), and a polyethylene cannula was inserted through the left femoral artery into the abdominal aorta. The other end of the cannula was led out of the body and fixed at the back of the neck. One week after the operation, when the animal had recovered from the stress of the surgery, the other end of the cannula was connected to a blood pressure measuring device, which was constructed according to the directions of Laffan et al. [Laffan, P.J., Peterson A., Hitch S,W. and Jeunelot C., Cardiovascular Res. 6. 319-324 (1972)], but with slight modifications. The blood pressure and heart rate of the conscious and […] SHR were measured. After the blood pressure and the heart rate had stabilised for more than one hour, the test drug was administered by […]. After administration of the test sample, the blood pressure and the heart rate were measured every 15 minutes over a period of 24 hours. The maximum decrease in blood pressure and the half-time of the blood pressure lowering activity thus determined are shown in Table 6.
All of the test compounds were employed as the hydrochlorides.

[3] = Rattus norvegicus, po, Dose 30 mg/kg, read-out: Maximum hypotension (%)
[4] = Rattus norvegicus, po, Dose 10 mg/kg, read-out: Maximum hypotension (%)

**Q.** For COc1ccc(Oc2ccc3c(c2)S[C@@H](c2ccc(OC)cc2)[C@@H](OC(C)=O)C(=O)N3CCN(C)C)cc1 (relative stereo) [Example 28, (±)-cis-3-Acetoxy-5-(2-dimethylaminoethyl)-2,3-dihydro-8-(4-methoxyphenoxy)-2-(4-methoxyphenyl)-1,5-benzothlazepin-4-(5H)-one], which inhibition at 0.01 µg/mL [1] is on record?
**A.** 59%

**Q.** How did the inhibition at 0.01 µg/mL [1] turn out when COc1ccc([C@@H]2Sc3cc(Oc4ccc5c(c4)OCO5)ccc3N(CCN(C)C)C(=O)[C@@H]2OC(C)=O)cc1 [Example 34, (2S, 3S)-3-Acetoxy-5-(2-dimethylaminoethyl)-2,3-dihydro-2-(4-methoxyphenyl)-8-(3,4-methylenedioxyphenoxy)-1,5-benzothiazepin-4(5H)-one] was run?
**A.** 88%

**Q.** For COc1ccc([C@@H]2Sc3cc(OCc4ccccc4)ccc3N(CCN(C)C)C(=O)[C@@H]2OC(C)=O)cc1 (racemic) [(±)-8-BzO-diltiazem, cis-3-acetoxy-8-benzyloxy-2,3-dihydro-5-(2-dimethylaminoethyl)-2-(4-methoxyphenyl)-1,5-benzothiazepin-4(5H)-one, reference compound], which inhibition at 0.01 µg/mL [1] is on record?
**A.** 55%

**Q.** And the “Half-time of hypotension action” value ([2]; Dose 30 mg/kg)?
**A.** 7.7 h

**Q.** What about the change in vivo at 30 mg/kg [2, 3] of the same compound?
**A.** -19%

**Q.** Which inhibition at 0.01 µg/mL [1] does the source give for COc1ccc([C@@H]2Sc3cc(Oc4ccccc4)ccc3N(CCN(C)C)C(=O)[C@@H]2OC(C)=O)cc1 [Example 12, (2S, 3S)-3-Acetoxy-5-(2-dimethylaminoethyl)-2,3-dihydro-2-(4-methoxyphenyl1}-8-phenoxy-1,5-benzothiazepin-4(5H)-one] here?
**A.** 86%

**Q.** What about the “Half-time of hypotension action” value ([2]; Dose 5 mg/kg) of the same compound?
**A.** 11.8 h

**Q.** What about the change in vivo at 5 mg/kg ([2]; Rattus norvegicus, po, Dose 5 mg/kg, read-out: Maximum hypotension (%)) of the same compound?
**A.** -38%

**Q.** COc1ccc([C@@H]2Sc3cc(Oc4ccccc4)ccc3N(CCN(C)C)C(=O)[C@@H]2OC(C)=O)cc1 (racemic) [Example 2, (±)-Cis-3-acetoxy-5-(2-dimethylaminoethyl)-2,3-dihydro-2-(4-methoxyphenyl)-8-phenoxy-1,5-benzothiazepin-4(5H)-one] was tested. Which inhibition at 0.01 µg/mL [1] did it give?
**A.** 58%

**Q.** And the “Half-time of hypotension action” value ([2]; Dose 30 mg/kg)?
**A.** 13.9 h

**Q.** And the change in vivo at 30 mg/kg [2, 3]?
**A.** -34%

**Q.** What does the source list for COc1ccc([C@@H]2Sc3ccccc3N(CCN(C)C)C(=O)[C@@H]2OC(C)=O)cc1 (relative stereo) [(±)-diltiazem, reference compound]?
**A.** inhibition at 0.01 µg/mL [1]: 11%; Half-time of hypotension action ([2]; Dose 30 mg/kg): 3.8 h; change in vivo at 30 mg/kg [2, 3]: -17%

**Q.** How did the inhibition at 0.01 µg/mL [1] turn out when COc1ccc([C@@H]2Sc3cc(OC)ccc3N(CCN(C)C)C(=O)[C@@H]2OC(C)=O)cc1 (relative stereo) [(±)-8-MeO-diltiazem, cis-3-acetoxy-8-methoxy-2,3-dihydro-5-(2-dimethylaminoethyl)-2-(4-methoxyphenyl)-1,5-benzotbiazepin-4(5E,uns/H/ )-one, reference compound] was run?
**A.** 67%

**Q.** And the “Half-time of hypotension action” value ([2]; Dose 30 mg/kg)?
**A.** 5.8 h

**Q.** And the change in vivo at 30 mg/kg [2, 3]?
**A.** -35%

**Q.** Which inhibition at 0.01 µg/mL [1] does the source give for COc1ccc([C@@H]2Sc3cc(Cc4ccccc4)ccc3N(CCN(C)C)C(=O)[C@@H]2OC(C)=O)cc1 [Example 18] here?
**A.** 77%

**Q.** And the “Half-time of hypotension action” value ([2]; Dose 10 mg/kg)?
**A.** 13.8 h

**Q.** What about the change in vivo at 10 mg/kg [2, 4] of the same compound?
**A.** -32%

**Q.** COc1ccc([C@@H]2Sc3cc(Oc4ccc(F)cc4)ccc3N(CCN(C)C)C(=O)[C@@H]2OC(C)=O)cc1 (racemic) [Example 22, (±)-cis-3-Acetoxy-5-(2-dimethylaminoethyl)-8-(4-fluoro-phenoxy)-2,3-dihydro-2-(4-methoxyphenyl)-1,5-benzothiazepin-4(5H)-one] was tested. Which inhibition at 0.01 µg/mL [1] did it give?
**A.** 52%

**Q.** COc1ccc([C@@H]2Sc3cc(Oc4ccc(F)cc4)ccc3N(CCN(C)C)C(=O)[C@@H]2OC(C)=O)cc1F (racemic) [Example 24, (±)-cis-3-Acetoxy-5-(2-dimethylaminoethyl)-2-(3-fluoro-4-methoxyphenyl)-8-(4-fluorophenoxy)-2,3-dihydro-1,5-benzothiazepin-4(5H)-one] was tested. Which inhibition at 0.01 µg/mL [1] did it give?
**A.** 93%

**Q.** COc1ccc([C@@H]2Sc3cc(Cl)ccc3N(CCN(C)C)C(=O)[C@@H]2OC(C)=O)cc1 (relative stereo) [(±)-8-Cl-diltiazem, cis-3-acetoxy-8-chloro-2,3-dihydro-5-(2-dimethylaminoethyl)-2-(4-methoxyphenyl)-1,5-benzothiazepin-4(5E,uns/H/ )-one, reference compound] was tested. Which inhibition at 0.01 µg/mL [1] did it give?
**A.** 56%

**Q.** What about the “Half-time of hypotension action” value ([2]; Dose 30 mg/kg) of the same compound?
**A.** 6.1 h

**Q.** And the change in vivo at 30 mg/kg [2, 3]?
**A.** -32%

**Q.** For CCN(CC)CCN1C(=O)[C@H](OC(C)=O)[C@H](c2ccc(OC)cc2)Sc2cc(Oc3ccccc3)ccc21 [Example 36, (2S, 3S)-3-Acetoxy-5-(2-diethylaminoethyl)-2,3-dihydro-2-(4-methoxyphenyl)-8-phenoxy-1,5-benzothiazepin-4(5H)-one], which inhibition at 0.01 µg/mL [1] is on record?
**A.** 80%

**Q.** And the “Half-time of hypotension action” value ([2]; Dose 10 mg/kg)?
**A.** 8.2 h

**Q.** And the change in vivo at 10 mg/kg [2, 4]?
**A.** -29%

**Q.** How did the inhibition at 0.01 µg/mL [1] turn out when CC(=O)O[C@H]1C(=O)N(CCN(C)C)c2ccc(Oc3ccccc3)cc2S[C@H]1c1ccc2c(c1)OCO2 (relative stereo) [Example 6, (±)-Cis-3-acetoxy-5-(2-dimethylaminoethyl)-2,3-dihydro-2-(3,4-methylenedioxyphenyl)-8-phenoxy-1,5-benzothiazepin-(5H)-one] was run?
**A.** 53%

**Q.** Which results are given for COc1ccc([C@@H]2Sc3ccccc3N(CCN(C)C)C(=O)[C@@H]2OC(C)=O)cc1 [(+)-diltiazem, (2, 3S)-cis-3-acetoxy-2,3-dihydro-5-(2-dimethylaminoethyl)-2-(4-methoxyphenyl)-1,5-benzothiazepin-4(5H)-one, reference compound]?
**A.** inhibition at 0.01 µg/mL [1]: 20%; Half-time of hypotension action ([2]; Dose 10 mg/kg): 3.3 h; change in vivo at 10 mg/kg [2, 4]: -15%

**Q.** For COc1ccc([C@@H]2Sc3cc(Cc4ccc(F)cc4)ccc3N(CCN(C)C)C(=O)[C@@H]2OC(C)=O)cc1 [Example 38, (2S, 3S)-3-Acetoxy-5-(2-dimethylaminoethyl)-8-(4-fluoro-benzyl)-2,3-dihydro-2-(4-methoxyphenyl)-1,5-benzothiazepin-4(5H)-one], which inhibition at 0.01 µg/mL [1] is on record?
**A.** 69%

**Q.** What about the “Half-time of hypotension action” value ([2]; Dose 10 mg/kg) of the same compound?
**A.** 11.8 h

**Q.** And the change in vivo at 10 mg/kg [2, 4]?
**A.** -32%

**Q.** How did the inhibition at 0.01 µg/mL [1] turn out when COc1ccc([C@@H]2Sc3cc(Oc4ccc(F)cc4)ccc3N(CCN(C)C)C(=O)[C@@H]2OC(C)=O)cc1F [Example 32, (2S, 3S)-3-Acetoxy-5-(2-dimethylaminoethyl)-2-(3-fluoro-4-methoxyphenyl)-8-(4-fluorophenoxy)-2,3-dihydro-1,5-benzothiazepin-4(5H)-one] was run?
**A.** 100%

**Q.** What about the “Half-time of hypotension action” value ([2]; Dose 10 mg/kg) of the same compound?
**A.** 13.8 h

**Q.** What about the change in vivo at 10 mg/kg [2, 4] of the same compound?
**A.** -41%

**Q.** How did the inhibition at 0.01 µg/mL [1] turn out when COc1ccc([C@@H]2Sc3cc(Oc4ccccc4)ccc3N(CCN(C)C)C(=O)[C@@H]2OC(C)=O)cc1F [Example 16, (2S, 3S)-3-Acetoxy-5-(2-dimethylaminoethyl)-2-(3-fluoro-4-methoxyphenvl)-2,3-dihydro-8-phenoxy-1,5-benzothiazepin-4(5H)-one] was run?
**A.** 80%

**Q.** What about the “Half-time of hypotension action” value ([2]; Dose 3 mg/kg) of the same compound?
**A.** 9.4 h

**Q.** What about the change in vivo at 3 mg/kg ([2]; Rattus norvegicus, po, Dose 3 mg/kg, read-out: Maximum hypotension (%)) of the same compound?
**A.** -21%

**Q.** Which inhibition at 0.01 µg/mL [1] does the source give for COc1ccc([C@@H]2Sc3cc(Oc4ccc(Cl)cc4)ccc3N(CCN(C)C)C(=O)[C@@H]2OC(C)=O)cc1 (relative stereo) [Example 30, (±)-cis-3-Acetoxy-8-(4-chlorophenoxy)-2,3-dihydro-5-(2-dimethylaminoethyl)-2-(4-methoxyphenyl)-1,5-benzothiazepin-4-(5H)-one] here?
**A.** 56%
